Results taken from PMC5516028, “Molecular tools for GABAA receptors: High affinity ligands for β1-containing subtypes” (Scientific Reports, 2017).

Key:
Type in all cases: cell-based
α3β3γ2 GABAA receptors = target: T1, α3β3γ2 GABAA receptors (Rattus norvegicus, UniProt P20236+P63079); experiment: Two electrode voltage clamp in Xenopus laevis oocytes, α3β3γ2
T1 construct: expressed in transfected cells; host or cells: Xenopus laevis oocytes, mRNA injected
From the text: (§1) cDNA’s of rat GABAA receptor subunits α1, α4, β1, β2, β3 and γ2S were cloned as described. cDNAs of the rat subunits α2, α3 and α5 were gifts from P. Malherbe, that of α6 and γ1 were gifts of P. Seeburg and that of δ was a gift of C. Czajkowski. The mutants were constructed using the Q5 Site-Directed Mutagenesis Kit (New England Biolabs) following manufacturer’s instruction. We used the wild-type rat β3-pCI vector as template and the primers […] and […] resulting in a substitution of amino acid N41 (AAC) to R (AGG). We used the wild-type rat β1-pCI vector as template and the primers […] and […] resulting in a substitution of amino acid R41 (CGG) to N (AAC). The mutated subunits were confirmed by sequencing.
(§2) In vitro transcription of mRNA was based on the cDNA expression vectors encoding for rat GABAA receptor subunits α1–6, β1-3, γ1,2, δ and the two β mutants (β1R41N and β3N41R)[40]. After linearizing the cDNA vectors with appropriate restriction endonucleases, the cDNA was purified and concentrated with the DNA Clean and Contentrator ^TM Kit (Zymoresearch, Catalog No. D4005). Capped transcripts of the purified cDNA were produced using the mMESSAGE mMACHINE® T7 transcription kit (Ambion, TX, USA) and polyadenylated using the Ambion PolyA tailing kit (Ambion). After transcription and polyadenylation the RNA was purified with the MEGAclear ^TM Kit (Ambion, Catalog No. AM1908). The final RNA concentration was measured on NanoDrop® ND-1000 and finally diluted and stored in diethylpyrocarbonate-treated water at −80 °C. For the microinjection, the RNA of αβ receptor combinations was mixed at 1:1 ratio (which leads to αβ receptors that consist of predominantly 3 beta and 2 alpha subunits[27]), for αkβlγm (k = 1–3, l = 1, 3, m = 1, 2) receptors at 1:1:5 ratio, for αkβ3γ2 (k = 4–6) and αkβlδ (k = 1, 4 and 6, l = 1, 3) receptor combinations at 3:1:5 ratio.
(§3) Mature female Xenopus laevis (Nasco, WI) were anesthetized in a bath of ice-cold 0.17% Tricain (Ethyl-m-aminobenzoate, Sigma, MO) before decapitation in full accordance with all rules of the Austrian animal protection law (see http://www.ris.bka.gv.at/Dokumente/BgblAuth/BGBLA_2012_I_114/BGBLA_2012_I_114.pdf) and the Austrian animal experiment by-laws (see https://www.ris.bka.gv.at/Dokumente/BgblAuth/BGBLA_2012_II_522/BGBLA_2012_II_522.pdf) which implement the European Directive 2010/63/EU (see http://eur-lex.europa.eu/LexUriServ/LexUriServ.do?uri=OJ:L:2010:276:0033:0079:en:PDF) into the Austrian law (all information accessed on July 27, 2016). The frog’s ovaries were transferred to ND96 medium (96 mM NaCl, 2 mM KCl, 1 mM MgCl2, 5 mM HEPES; pH 7.5). Stage 5–6 oocytes with the follicle cell layer around them were roughly dissected with forceps into packages of 10–15 cells and washed in Ca^2+-free ND96 medium. Cells were then digested with collagenase (type IA, Sigma, NO, 1 mg/mL ND96) at 18 °C shaking at 30 rpm for 30–60 minutes and gently defolliculated with the aid of a glass pipette with appropriate tip diameter and a platinum loop. Defolliculated cells were stored at 18 °C for at least 6 hours in ND96 solution containing penicillin G (10000 IU/100 mL) and streptomycin (10 mg/100 mL) in order to preselect and exclude damaged cells from further treatment. Healthy defolliculated oocytes were injected with an aqueous solution of mRNA. A total of 4.5 ng of mRNA per oocyte was injected with a Nanoject II (Drummond). After injection of mRNA, oocytes were incubated at 18 °C (ND96 + antibiotic) for 2–3 days for αβ receptors and for 3–4 days for αβγ or αβδ receptors before recording. When cells were measured at later time points, oocytes were stored at +4 °C instead of 18 °C.
(§4) For electrophysiological recordings, oocytes were placed on a nylon-grid in a bath of Ca^2+-containing NDE solution medium [96 mM NaCl, 5 mM HEPES-NaOH (pH 7.5), 2 mM KCl, 1 mM MgCl2, 1.8 mM CaCl2].

α5β3 GABAA receptors = target: T2, α5β3 GABAA receptors (Rattus norvegicus, UniProt P19969+P63079); experiment: Two electrode voltage clamp in Xenopus laevis oocytes, α5β3
T2 construct: expressed in transfected cells; host or cells: Xenopus laevis oocytes, mRNA injected
From the text: as §1, §2, §3, §4

α3β3 GABAA receptors = target: T3, α3β3 GABAA receptors (Rattus norvegicus, UniProt P20236+P63079); experiment: Two electrode voltage clamp in Xenopus laevis oocytes, α3β3
T3 construct: expressed in transfected cells; host or cells: Xenopus laevis oocytes, mRNA injected
From the text: as §1, §2, §3, §4

α2β3γ2 GABAA receptors = target: T4, α2β3γ2 GABAA receptors (Rattus norvegicus, UniProt P23576+P63079); experiment: Two electrode voltage clamp in Xenopus laevis oocytes, α2β3γ2
T4 construct: expressed in transfected cells; host or cells: Xenopus laevis oocytes, mRNA injected
From the text: as §1, §2, §3, §4

α1β3γ2 GABAA receptors = target: T5, α1β3γ2 GABAA receptors (Rattus norvegicus, UniProt P62813+P63079); experiment: Two electrode voltage clamp in Xenopus laevis oocytes, α1β3γ2
T5 construct: expressed in transfected cells; host or cells: Xenopus laevis oocytes, mRNA injected
From the text: as §1, §2, §3, §4

α5β3γ2 GABAA receptors = target: T6, α5β3γ2 GABAA receptors (Rattus norvegicus, UniProt P19969+P63079); experiment: Two electrode voltage clamp in Xenopus laevis oocytes, α5β3γ2
T6 construct: expressed in transfected cells; host or cells: Xenopus laevis oocytes, mRNA injected
From the text: as §1, §2, §3, §4

[1] = read-out: efficacy, % of control current (GABA EC3-5 = 100%), 1 nM
[2] = read-out: efficacy, % of control current (GABA EC3-5 = 100%), 100 nM
[3] = read-out: efficacy, % of control current (GABA EC3-5 = 100%), 10 µM

T2 sequence (P19969 32-464 limits assumed): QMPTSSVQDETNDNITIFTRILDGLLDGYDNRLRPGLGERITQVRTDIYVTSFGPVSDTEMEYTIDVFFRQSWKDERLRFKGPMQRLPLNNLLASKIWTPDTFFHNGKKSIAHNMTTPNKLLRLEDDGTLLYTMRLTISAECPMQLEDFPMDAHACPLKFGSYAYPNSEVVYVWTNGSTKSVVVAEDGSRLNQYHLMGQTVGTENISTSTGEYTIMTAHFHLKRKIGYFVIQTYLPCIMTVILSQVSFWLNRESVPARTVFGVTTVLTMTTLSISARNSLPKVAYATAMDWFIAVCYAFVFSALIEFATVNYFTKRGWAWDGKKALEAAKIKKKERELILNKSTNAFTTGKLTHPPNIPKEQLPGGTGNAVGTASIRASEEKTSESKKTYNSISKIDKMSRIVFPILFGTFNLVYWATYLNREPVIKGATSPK
T2 sequence (P63079 26-473): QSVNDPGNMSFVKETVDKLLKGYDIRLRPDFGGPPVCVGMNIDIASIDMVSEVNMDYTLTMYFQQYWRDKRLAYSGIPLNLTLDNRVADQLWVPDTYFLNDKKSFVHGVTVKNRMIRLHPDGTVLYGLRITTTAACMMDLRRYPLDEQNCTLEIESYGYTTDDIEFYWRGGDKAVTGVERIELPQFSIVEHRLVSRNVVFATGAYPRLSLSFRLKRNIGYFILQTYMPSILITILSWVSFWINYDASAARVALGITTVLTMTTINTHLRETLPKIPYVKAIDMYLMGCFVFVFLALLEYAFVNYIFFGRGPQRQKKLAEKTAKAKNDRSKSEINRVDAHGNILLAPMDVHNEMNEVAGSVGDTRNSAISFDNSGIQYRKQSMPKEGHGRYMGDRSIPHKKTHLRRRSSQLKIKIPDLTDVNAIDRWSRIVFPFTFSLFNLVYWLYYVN
T6 sequence (P19969 32-464 limits assumed): as the sequence (P19969 32-464 limits assumed) above
T6 sequence (P63079 26-473): as the sequence (P63079 26-473) above
T6 sequence (P18508 39-466 partner): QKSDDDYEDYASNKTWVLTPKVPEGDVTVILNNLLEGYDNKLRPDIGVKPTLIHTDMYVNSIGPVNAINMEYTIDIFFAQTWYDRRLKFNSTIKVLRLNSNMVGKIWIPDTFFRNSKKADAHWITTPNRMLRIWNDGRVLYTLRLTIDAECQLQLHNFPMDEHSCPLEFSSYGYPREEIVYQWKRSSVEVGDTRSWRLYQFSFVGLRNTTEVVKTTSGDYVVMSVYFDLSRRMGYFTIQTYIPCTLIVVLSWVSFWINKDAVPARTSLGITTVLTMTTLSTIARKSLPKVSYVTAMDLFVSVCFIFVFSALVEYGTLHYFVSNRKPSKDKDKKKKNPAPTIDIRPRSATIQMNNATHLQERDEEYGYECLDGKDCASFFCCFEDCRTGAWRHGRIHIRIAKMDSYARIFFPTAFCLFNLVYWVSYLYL
T5 sequence (P62813 28-455): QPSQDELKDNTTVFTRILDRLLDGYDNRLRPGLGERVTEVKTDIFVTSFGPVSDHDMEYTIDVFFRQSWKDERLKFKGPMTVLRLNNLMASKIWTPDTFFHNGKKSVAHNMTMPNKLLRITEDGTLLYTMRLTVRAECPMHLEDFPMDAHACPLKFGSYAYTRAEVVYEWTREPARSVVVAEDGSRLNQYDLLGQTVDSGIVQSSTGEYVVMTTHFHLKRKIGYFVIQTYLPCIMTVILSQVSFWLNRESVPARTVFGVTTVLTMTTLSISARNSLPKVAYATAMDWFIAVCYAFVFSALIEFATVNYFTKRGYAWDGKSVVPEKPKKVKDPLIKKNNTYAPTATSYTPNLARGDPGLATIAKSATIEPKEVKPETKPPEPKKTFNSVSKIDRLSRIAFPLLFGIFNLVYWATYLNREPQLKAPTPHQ
T5 sequence (P63079 26-473): as the sequence (P63079 26-473) above
T5 sequence (P18508 39-466 partner): as the sequence (P18508 39-466 partner) above
T4 sequence (P23576 29-451): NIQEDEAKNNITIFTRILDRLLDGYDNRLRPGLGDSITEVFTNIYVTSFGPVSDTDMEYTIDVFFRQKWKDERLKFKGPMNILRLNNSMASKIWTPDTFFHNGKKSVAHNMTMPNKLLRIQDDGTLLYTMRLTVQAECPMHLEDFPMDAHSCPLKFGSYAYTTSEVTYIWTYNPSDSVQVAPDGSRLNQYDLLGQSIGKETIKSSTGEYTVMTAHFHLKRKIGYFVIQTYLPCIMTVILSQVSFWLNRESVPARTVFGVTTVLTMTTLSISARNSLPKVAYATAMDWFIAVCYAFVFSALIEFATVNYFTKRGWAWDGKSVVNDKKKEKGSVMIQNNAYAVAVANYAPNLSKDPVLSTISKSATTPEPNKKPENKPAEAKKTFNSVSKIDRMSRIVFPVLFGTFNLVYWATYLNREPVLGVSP
T4 sequence (P63079 26-473): as the sequence (P63079 26-473) above
T4 sequence (P18508 39-466 partner): as the sequence (P18508 39-466 partner) above
T3 sequence (P20236 29-493): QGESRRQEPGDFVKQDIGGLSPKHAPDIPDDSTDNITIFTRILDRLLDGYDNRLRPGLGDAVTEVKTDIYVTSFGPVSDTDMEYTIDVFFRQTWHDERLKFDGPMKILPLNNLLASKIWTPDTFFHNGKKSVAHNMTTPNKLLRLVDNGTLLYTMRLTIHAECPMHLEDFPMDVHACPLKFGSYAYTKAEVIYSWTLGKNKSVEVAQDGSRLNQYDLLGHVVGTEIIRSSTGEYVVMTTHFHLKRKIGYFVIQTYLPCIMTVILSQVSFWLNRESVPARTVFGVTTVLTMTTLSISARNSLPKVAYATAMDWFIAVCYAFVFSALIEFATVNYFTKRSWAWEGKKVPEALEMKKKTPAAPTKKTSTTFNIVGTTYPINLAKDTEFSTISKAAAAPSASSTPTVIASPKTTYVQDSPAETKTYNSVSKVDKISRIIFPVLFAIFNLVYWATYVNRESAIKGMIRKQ
T3 sequence (P63079 26-473): as the sequence (P63079 26-473) above
T1 sequence (P20236 29-493): as the sequence (P20236 29-493) above
T1 sequence (P63079 26-473): as the sequence (P63079 26-473) above
T1 sequence (P18508 39-466 partner): as the sequence (P18508 39-466 partner) above

## Cc1ccc(-n2nc3c4cc(Cl)ccc4[nH]cc-3c2=O)cc1 [Compound 2, 8-Chloro-2-(4-methylphenyl)-2H-pyrazolo[4,3-c]quinolin-3(5H)-one]
α3β3γ2 GABAA receptors; co-applied with GABA EC3-5
  EC50: 7.2 µM
α3β3γ2 GABAA receptors; [1]
  activity at 0.001 µM: 100%
α3β3γ2 GABAA receptors; [2]
  activity at 0.1 µM: 109 ± 1%
α3β3γ2 GABAA receptors; [3]
  activity at 10 µM: 305 ± 71%
α5β3 GABAA receptors
  EC50: 6.1 µM
α5β3 GABAA receptors; read-out: efficacy, % of control current (GABA EC3-5 = 100%), α5β3, 1 nM
  activity at 0.001 µM: 97.3 ± 1.2%
α5β3 GABAA receptors; read-out: efficacy, % of control current (GABA EC3-5 = 100%), α5β3, 100 nM
  activity at 0.1 µM: 110 ± 3.6%
α5β3 GABAA receptors; read-out: efficacy, % of control current (GABA EC3-5 = 100%), α5β3, 300 nM
  activity at 0.3 µM: 108 ± 6.3%
α5β3 GABAA receptors; read-out: efficacy, % of control current (GABA EC3-5 = 100%), α5β3, 1 µM
  activity at 1 µM: 132 ± 3.8%
α5β3 GABAA receptors; read-out: efficacy, % of control current (GABA EC3-5 = 100%), α5β3, 3 µM
  activity at 3 µM: 190 ± 22.9%
α5β3 GABAA receptors; read-out: efficacy, % of control current (GABA EC3-5 = 100%), α5β3, 30 µM
  activity at 30 µM: 232 ± 21.5%
α3β3 GABAA receptors
  EC50: 2.1 µM
α3β3 GABAA receptors; read-out: efficacy, % of control current (GABA EC3-5 = 100%), α3β3, 1 nM
  activity at 0.001 µM: 101.2 ± 0.8%
α3β3 GABAA receptors; read-out: efficacy, % of control current (GABA EC3-5 = 100%), α3β3, 10 nM
  activity at 0.01 µM: 102 ± 1.2%
α3β3 GABAA receptors; read-out: efficacy, % of control current (GABA EC3-5 = 100%), α3β3, 100 nM
  activity at 0.1 µM: 106 ± 1.3%
α3β3 GABAA receptors; read-out: efficacy, % of control current (GABA EC3-5 = 100%), α3β3, 3 µM
  activity at 3 µM: 226 ± 10.7%
α3β3 GABAA receptors; read-out: efficacy, % of control current (GABA EC3-5 = 100%), α3β3, 10 µM
  activity at 10 µM: 285 ± 7%
α3β3 GABAA receptors; read-out: efficacy, % of control current (GABA EC3-5 = 100%), α3β3, 30 µM
  activity at 30 µM: 288 ± 8.7%
α2β3γ2 GABAA receptors
  EC50: 5.5 µM
α2β3γ2 GABAA receptors; read-out: efficacy, % of control current (GABA EC3-5 = 100%), α2β3γ2, 1 nM
  activity at 0.001 µM: 100%
α2β3γ2 GABAA receptors; read-out: efficacy, % of control current (GABA EC3-5 = 100%), α2β3γ2, 10 nM
  activity at 0.01 µM: 108 ± 4.2%
α2β3γ2 GABAA receptors; read-out: efficacy, % of control current (GABA EC3-5 = 100%), α2β3γ2, 100 nM
  activity at 0.1 µM: 111 ± 2.3%
α2β3γ2 GABAA receptors; read-out: efficacy, % of control current (GABA EC3-5 = 100%), α2β3γ2, 300 nM
  activity at 0.3 µM: 134%
α2β3γ2 GABAA receptors; read-out: efficacy, % of control current (GABA EC3-5 = 100%), α2β3γ2, 1 µM
  activity at 1 µM: 137 ± 5.5%
α2β3γ2 GABAA receptors; read-out: efficacy, % of control current (GABA EC3-5 = 100%), α2β3γ2, 10 µM
  activity at 10 µM: 470 ± 50%
α2β3γ2 GABAA receptors; read-out: efficacy, % of control current (GABA EC3-5 = 100%), α2β3γ2, 30 µM
  activity at 30 µM: 580%
α1β3γ2 GABAA receptors; co-applied with GABA EC3-5, read-out: EC50
  EC50: 4.4 µM
α1β3γ2 GABAA receptors; [1]
  activity at 0.001 µM: 100%
α1β3γ2 GABAA receptors; read-out: efficacy, % of control current (GABA EC3-5 = 100%), 10 nM
  activity at 0.01 µM: 108 ± 4%
α1β3γ2 GABAA receptors; [2]
  activity at 0.1 µM: 108 ± 4%
α1β3γ2 GABAA receptors; read-out: efficacy, % of control current (GABA EC3-5 = 100%), 300 nM
  activity at 0.3 µM: 128 ± 5.6%
α1β3γ2 GABAA receptors; read-out: efficacy, % of control current (GABA EC3-5 = 100%), 1 µM
  activity at 1 µM: 156 ± 19%
α1β3γ2 GABAA receptors; [3]
  activity at 10 µM: 423 ± 106%
α1β3γ2 GABAA receptors; read-out: efficacy, % of control current (GABA EC3-5 = 100%), 30 µM
  activity at 30 µM: 534 ± 136%
α1β3γ2 GABAA receptors; read-out: maximum efficacy / modulatory effects up to
  Emax: ~600%
α5β3γ2 GABAA receptors
  EC50: 6.4 µM
α5β3γ2 GABAA receptors; read-out: efficacy, % of control current (GABA EC3-5 = 100%), α5β3γ2, 1 nM
  activity at 0.001 µM: 93.3 ± 5.7%
α5β3γ2 GABAA receptors; read-out: efficacy, % of control current (GABA EC3-5 = 100%), α5β3γ2, 10 nM
  activity at 0.01 µM: 95.1 ± 6.9%
α5β3γ2 GABAA receptors; read-out: efficacy, % of control current (GABA EC3-5 = 100%), α5β3γ2, 100 nM
  activity at 0.1 µM: 97.7 ± 11.5%
α5β3γ2 GABAA receptors; read-out: efficacy, % of control current (GABA EC3-5 = 100%), α5β3γ2, 300 nM
  activity at 0.3 µM: 103 ± 14.9%
α5β3γ2 GABAA receptors; read-out: efficacy, % of control current (GABA EC3-5 = 100%), α5β3γ2, 1 µM
  activity at 1 µM: 123 ± 16.5%
α5β3γ2 GABAA receptors; read-out: efficacy, % of control current (GABA EC3-5 = 100%), α5β3γ2, 10 µM
  activity at 10 µM: 220 ± 31.1%
α5β3γ2 GABAA receptors; read-out: efficacy, % of control current (GABA EC3-5 = 100%), α5β3γ2, 30 µM
  activity at 30 µM: 266 ± 41%
α5β3γ2 GABAA receptors; α5-containing subtype (α5β3γ2), read-out: maximum efficacy
  Emax: ~200%
